Laboratory results as given in US20250346600A1, “TRICYCLIC DERIVATIVES AND RELATED USES” (MOMA Therapeutics, Inc., priority 2023, published 2025).
Where two headings read alike, the source gives them in different places.

How the values were obtained:
[1] = tested on: HCT116 cells; assay: HCT116 (MSI) 7 day viability, CellTiter Glo; type: cell-based; settings: 7 days, read-out: HCT116 (MSI) Viability 7 Day Abs AC50
Method in brief: (§1)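 10 mM DMSO stocks serially diluted 3-fold, 10 steps; cells added (HCT116 50/well, HT29 500/well); 7 d, 37 °C, 5% CO2; CellTiter Glo 20 min RT; luminescence.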

[2] = molecular target: T1, Full length WRN protein (aa 2-1432) (Homo sapiens (Human), UniProt Q14191); assay: WRN ATPase ADP-Glo biochemical assay, Assay Format A (10 μM ATP); settings: 0.25 nM WRN, 100 nM C6.18 ssDNA, 30 min preincubation, read-out: ATPase ADPGlo AC50 (uM)- Assay Format A
T1 sequence (Q14191 2-1432): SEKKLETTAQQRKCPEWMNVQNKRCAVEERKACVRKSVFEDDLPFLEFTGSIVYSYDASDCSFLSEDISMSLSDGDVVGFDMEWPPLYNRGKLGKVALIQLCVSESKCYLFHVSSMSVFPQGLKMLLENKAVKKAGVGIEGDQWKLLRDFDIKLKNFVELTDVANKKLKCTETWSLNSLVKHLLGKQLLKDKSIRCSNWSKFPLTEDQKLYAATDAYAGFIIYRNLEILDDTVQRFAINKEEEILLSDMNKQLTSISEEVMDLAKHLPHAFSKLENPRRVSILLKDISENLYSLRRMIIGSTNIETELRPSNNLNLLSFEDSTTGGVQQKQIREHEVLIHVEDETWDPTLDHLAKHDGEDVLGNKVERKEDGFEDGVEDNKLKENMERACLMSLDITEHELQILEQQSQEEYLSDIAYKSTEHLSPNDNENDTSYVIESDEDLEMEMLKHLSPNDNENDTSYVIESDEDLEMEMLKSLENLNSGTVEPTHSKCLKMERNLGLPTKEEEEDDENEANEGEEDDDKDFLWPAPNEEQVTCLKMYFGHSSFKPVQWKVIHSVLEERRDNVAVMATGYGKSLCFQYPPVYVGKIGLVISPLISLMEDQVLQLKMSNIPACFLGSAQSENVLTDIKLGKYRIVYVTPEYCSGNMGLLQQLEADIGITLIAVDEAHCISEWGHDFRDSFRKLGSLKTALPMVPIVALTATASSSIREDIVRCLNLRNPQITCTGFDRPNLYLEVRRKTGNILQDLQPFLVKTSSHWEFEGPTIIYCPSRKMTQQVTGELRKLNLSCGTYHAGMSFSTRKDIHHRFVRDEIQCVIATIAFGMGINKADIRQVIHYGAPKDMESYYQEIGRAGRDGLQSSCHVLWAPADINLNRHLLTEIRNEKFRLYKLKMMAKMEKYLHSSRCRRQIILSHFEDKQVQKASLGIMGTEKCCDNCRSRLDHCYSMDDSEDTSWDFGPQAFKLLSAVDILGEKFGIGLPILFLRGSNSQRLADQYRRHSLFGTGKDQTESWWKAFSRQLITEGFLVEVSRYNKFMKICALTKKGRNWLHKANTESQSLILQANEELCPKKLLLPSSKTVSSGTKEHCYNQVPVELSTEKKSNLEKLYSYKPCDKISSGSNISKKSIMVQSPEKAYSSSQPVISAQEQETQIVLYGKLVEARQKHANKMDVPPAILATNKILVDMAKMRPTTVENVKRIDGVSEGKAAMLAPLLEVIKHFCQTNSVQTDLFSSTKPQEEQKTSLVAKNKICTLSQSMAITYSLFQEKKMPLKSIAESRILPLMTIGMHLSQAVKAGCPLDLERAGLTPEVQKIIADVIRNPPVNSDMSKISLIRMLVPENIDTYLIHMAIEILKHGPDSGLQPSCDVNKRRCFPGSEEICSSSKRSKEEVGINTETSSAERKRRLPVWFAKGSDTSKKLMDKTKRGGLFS
Method in brief: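 ADP-Glo luminescence measured hydrolysis of ATP by purified, baculovirus-expressed N-terminally tagged full-length WRN. Enzyme (0.5 nM) was preincubated 30 min with compound, then 200 nM ssDNA C6.18 plus 20 μM ATP were added (pre-mix levels) for 30 min at RT. IC50s come from four-parameter fits, geometric mean of at least two trials.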

[3] = tested on: HT29 cells; assay: HT29 (MSS) 7 day viability, CellTiter Glo; type: cell-based; settings: 7 days, read-out: HT29 (MSS) Viability 7 Day CTGAbs AC50
Method in brief: as §1

[4] = molecular target: T1, Full length WRN protein (aa 2-1432); assay: WRN ATPase ADP-Glo biochemical assay, Assay Format B (100 μM ATP); settings: 0.25 nM WRN, 100 nM C6.18 ssDNA, 60 min preincubation, read-out: ATPase ADPGlo AC50 (uM)- Assay Format B

C=CC(=O)N1CC(C)c2nn(-c3ccc(C4CCC4)cc3O)c3c2C(C1)N(C(=O)c1cnc(C(F)(F)F)cc1N)CC3 (centres unmarked) [Compound 130, 1-(5-(4-amino-6-(trifluoromethyl)nicotinoyl)-2-(4-cyclobutyl-2-hydroxyphenyl)-9-methyl-2,3,4,5,5a,6,8,9-octahydro-7H-1,2,5,7-tetraazabenzo[cd]azulen-7-yl)prop-2-en-1-one]
AC50 ([1]; Homo sapiens, HCT-116, 168 h): 1 to 100 nM
AC50 [2]: < 0.0015 µM
AC50 ([3]; Homo sapiens, HT-29, 168 h): > 3000 nM
AC50 [4]: 0.005 to 0.015 µM

C=CC(=O)N1CCc2nn(-c3ccc(C4CC4)cc3)c3c2C(C1)N(C(=O)c1ccc(Br)c2[nH]nc(N)c12)CC3 (centres unmarked) [Compound 131, 1-(5-(3-amino-7-bromo-1H-indazole-4-carbonyl)-2-(4-cyclopropylphenyl)-2,3,4,5,5a,6,8,9-octahydro-7H-1,2,5,7-tetraazabenzo[cd]azulen-7-yl)prop-2-en-1-one]
AC50 ([1]; Homo sapiens, HCT-116, 168 h): 1 to 100 nM
AC50 [2]: < 0.0015 µM
AC50 ([3]; Homo sapiens, HT-29, 168 h): > 3000 nM
AC50 [4]: 0.005 to 0.015 µM

C=CC(=O)N1CCc2nn(-c3ccc(C45CC(C4)C5)cc3)c3c2C(C1)N(C(=O)c1cnc(C(F)(F)F)cc1N)CC3 (centres unmarked) [Compound 133, 1-(5-(4-amino-6-(trifluoromethyl)nicotinoyl)-2-(4-(bicyclo[1.1.1]pentan-1-yl)phenyl)-2,3,4,5,5a,6,8,9-octahydro-7H-1,2,5,7-tetraazabenzo[cd]azulen-7-yl)prop-2-en-1-one]
AC50 ([1]; Homo sapiens, HCT-116, 168 h): 1 to 100 nM
AC50 [2]: < 0.0015 µM
AC50 ([3]; Homo sapiens, HT-29, 168 h): > 3000 nM
AC50 [4]: 0.005 to 0.015 µM

C=CC(=O)N1CCc2nn(-c3ccc(C4CCC4)cc3O)c3c2C(C1)N(C(=O)c1cnc(C(F)(F)F)c(F)c1N)CC3 (centres unmarked) [Compound 134, 1-(5-(4-amino-5-fluoro-6-(trifluoromethyl)nicotinoyl)-2-(4-cyclobutyl-2-hydroxyphenyl)-2,3,4,5,5a,6,8,9-octahydro-7H-1,2,5,7-tetraazabenzo[cd]azulen-7-yl)prop-2-en-1-one]
AC50 ([1]; Homo sapiens, HCT-116, 168 h): 1 to 100 nM
AC50 [2]: < 0.0015 µM
AC50 ([3]; Homo sapiens, HT-29, 168 h): > 3000 nM
AC50 [4]: 0.0015 to 0.005 µM

C=CC(=O)N1CC(C)c2nn(-c3ccc(C4CCC4)cc3O)c3c2C(C1)N(C(=O)c1cnc(C(F)(F)F)cc1N)CC3 (centres unmarked) [Compound 135, 1-(5-(4-amino-6-(trifluoromethyl)nicotinoyl)-2-(4-cyclobutyl-2-hydroxyphenyl)-9-methyl-2,3,4,5,5a,6,8,9-octahydro-7H-1,2,5,7-tetraazabenzo[cd]azulen-7-yl)prop-2-en-1-one]
AC50 [1]: 1 to 100 nM
AC50 [2]: < 0.0015 µM
AC50 [3]: > 3000 nM
AC50 [4]: 0.005 to 0.015 µM

C=CC(=O)N1CCc2nn(-c3ccc(C(F)(F)F)nc3N)c3c2C(C1)N(C(=O)c1ccc(Br)c2[nH]c(C(F)F)nc12)CC3 (centres unmarked) [Compound 136, 1-(2-(2-amino-6-(trifluoromethyl)pyridin-3-yl)-5-(7-bromo-2-(difluoromethyl)-1H-benzo[d]imidazole-4-carbonyl)-2,3,4,5,5a,6,8,9-octahydro-7H-1,2,5,7-tetraazabenzo[cd]azulen-7-yl)prop-2-en-1-one]
AC50 ([1]; Homo sapiens, HCT-116, 168 h): 100 to 250 nM
AC50 [2]: 0.0015 to 0.005 µM
AC50 ([3]; Homo sapiens, HT-29, 168 h): > 3000 nM
AC50 [4]: 0.015 to 0.055 µM

C=CC(=O)N1CCc2nn(-c3ccc(C4CCC4)cc3O)c3c2C(C1)N(C(=O)c1cnc(C(F)(F)F)cc1N)CC3 (centres unmarked) [Compound 138, 1-(5-(4-amino-6-(trifluoromethyl)nicotinoyl)-2-(4-cyclobutyl-2-hydroxyphenyl)-2,3,4,5,5a,6,8,9-octahydro-7H-1,2,5,7-tetraazabenzo[cd]azulen-7-yl)prop-2-en-1-one]
AC50 ([1]; Homo sapiens, HCT-116, 168 h): 1 to 100 nM
AC50 [2]: < 0.0015 µM
AC50 ([3]; Homo sapiens, HT-29, 168 h): > 3000 nM
AC50 [4]: 0.005 to 0.015 µM

C=CC(=O)N1CCc2nn(-c3ccc(C4CCC4)c(F)c3O)c3c2C(C1)N(C(=O)c1cnc(C(F)(F)F)cc1N)CC3 (centres unmarked) [Compound 139, 1-(5-(4-amino-6-(trifluoromethyl)nicotinoyl)-2-(4-cyclobutyl-3-fluoro-2-hydroxyphenyl)-2,3,4,5,5a,6,8,9-octahydro-7H-1,2,5,7-tetraazabenzo[cd]azulen-7-yl)prop-2-en-1-one]
AC50 ([1]; Homo sapiens, HCT-116, 168 h): 1 to 100 nM
AC50 [2]: < 0.0015 µM
AC50 ([3]; Homo sapiens, HT-29, 168 h): > 3000 nM
AC50 [4]: 0.005 to 0.015 µM
